# Data from PMC6003104, “Discovery of a Short‐Chain Dehydrogenase from Catharanthus roseus that Produces a New Monoterpene Indole Alkaloid” (Chembiochem, 2018).
# Molecular target: T1, vitrosamine synthase (VAS, Cro013448) (Catharanthus roseus, UniProt A0A0C5DR25)
# T1 construct: N-terminal His6 tag (pOPINF) kept; E. coli SoluBL21; calculated 34469 Da; monomer in solution, dimer in crystal; modelled residues 7-299
# Experiment: X-ray crystal structure, […] Å
# Assay type: binding
# Conditions: co-purified from E. coli as holoenzyme; crystals pH 4.0, 20 °C; active site, next to Ser167/Tyr223/Lys227
# T1 sequence (A0A0C5DR25 entry or part of it): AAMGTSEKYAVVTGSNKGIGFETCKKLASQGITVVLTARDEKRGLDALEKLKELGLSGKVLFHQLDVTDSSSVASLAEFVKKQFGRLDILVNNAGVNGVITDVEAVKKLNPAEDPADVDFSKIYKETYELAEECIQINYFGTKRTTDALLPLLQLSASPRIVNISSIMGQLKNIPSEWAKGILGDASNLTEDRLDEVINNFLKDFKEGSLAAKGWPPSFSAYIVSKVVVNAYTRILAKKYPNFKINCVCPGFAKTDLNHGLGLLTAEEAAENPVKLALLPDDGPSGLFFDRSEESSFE
smiles,measurement,value
NC(=O)c1ccc[n+]([C@@H]2O[C@H](COP(=O)(O)OP(=O)(O)OC[C@H]3O[C@@H](n4cnc5c(N)ncnc54)[C@H](OP(=O)(O)O)[C@@H]3O)[C@@H](O)[C@H]2O)c1 [NADP+],"X-ray crystal structure, 1.55 Å",the apo enzyme active site also had a high occupancy of NADP^+
